US20150184246A1, “BIOMARKERS OF RESPONSE TO PROTEASOME INHIBITORS” (Millennium Pharmaceuticals, Inc., priority 2011, published 2015)
Where a name gives a salt, the structure may show the parent alone. Read-outs that look alike come from different tables or passages of the source.

What was measured:
[1] = tested on: relapsed or refractory multiple myeloma; assay: APEX phase 3 trial (039), bortezomib versus high-dose dexamethasone, EBMT response criteria; assay type: in vivo, human; conditions: for Complete response / Complete response achieved, number of patients / Median duration of response / One-year survival / complete response plus near-complete response / response rate (complete plus partial response (CR+PR)) / Median time to response: -039 trial; for Median time to response: both groups
Protocol: Patients who received dexamethasone were treated for a maximum of 280 days by the following method: received up to four 5-week treatment cycles, followed by up to five 4-week treatment cycles. Within each 5-week treatment cycle, the patient received dexamethasone 40 mg/day PO, once daily on Days 1 to 4, 9 to 12, and 17 to 20 of a 35-day cycle. Within each 4-week treatment cycle, the patient received dexamethasone 40 mg/day PO once daily on Days 1 to 4 of a 28 day cycle.
The following section presents more detailed information on the -039 trial. During the study, disease response was assessed according to the European Group for Blood and Marrow Transplant (EBMT) criteria as presented in Table 3.
Response and date of disease progression was determined by computer algorithm that integrated data from a central laboratory and case report forms from each clinical site, according to the Blade criteria (Table 3). […] See Richardson et al., supra.
Disease progression was determined by Blade criteria as described in Table 3 and above. […] The date of progression was determined by computer algorithm. P-value from log-rank test adjusted by actual randomization factors. See Richardson et al., supra.

[2] = tested on: multiple myeloma patients (NRAS / KRAS status of tumor); assay: Pharmacogenomic analysis: pre-treatment NRAS/KRAS mutation status versus response, time-to-progression and overall survival; assay type: in vivo, human
From the text: Patient samples and response criteria from patients participating in these studies, as well as the following additional studies described below were sought for use in pharmacogenomic analyses to identify markers associated with patient survival. […] The bone marrow aspirates were collected prior to the patient's treatment in the studies. […] Dexamethasone is a synthetic adrenocorticosteroid, CAS Registry No. […], administered as tablets (DECADRON® Merck & Co., Inc.). The trials are described in the following paragraphs.
Upon collection of patient bone marrow aspirate, the myeloma cells were enriched via rapid negative selection. The enrichment procedure employs a cocktail of cell-type specific antibodies coupled with an antibody that binds red blood cells RosetteSep (Stem Cell Technologies). The antibody cocktail has antibodies with the following specificity: CD14 (monocytes), CD2 (T and NK cells), CD33 (myeloid progenitors and monocytes), CD41 (platelets and megakaryocytes), CD45RA (naïve B and T cells) and CD66b (granulocytes). The antibodies cross-linked the non-myeloma cell types to the red blood cells in the samples. The bound cell types were removed using a modified ficoll density gradient. Myeloma cells were then collected and frozen. In the international studies, the first two samples from each site were collected and subjected to RNA isolation so that feedback on quantity and quality could be provided; ultimately Phase 2 and 3 trials provided a similar percentage of informative samples. Control bone marrow plasma cell samples were obtained from normal donors (AllCells, Berkeley, Calif.).
Flow through from the RNEASY® column was clarified by centrifugation, then concentrated about 10-fold with centrifugal ultrafilters (MICROCON® centrifugal filter device, YM-30 membrane (30 kDa limit), Millipore Corp. Billerica, Mass.). Impurities were removed using the Qiagen QIAMP® DNA Micro Kit. DNA from the sample was amplified using the Qiagen REPLI-G® WGA kit. Mutation status of DNA from 133 bone marrow tumor biopsies was determined by testing a panel of cancer genes and known tumor suppressors using the Sequenom (San Diego, Calif.) mass spectrometry genotype analysis system.
Rather, the platform interrogated tumor DNA only for specific sequences that were previously implicated in cancer (i.e. ‘hotspot’ mutations), relying largely on the prior knowledge that these are highly relevant in human cancer. The panel of mutations evaluated consisted of the ONCOCARTA™ version 1.0 and custom assays designed in collaboration with Sequenom and Millennium to expand the list of mutations surveyed to 514 known mutations in 41 oncogenes and tumor suppressor genes. Table 5 lists genes with mutations included in the panel and the number in parentheses 0 indicates the approximate number of mutations targeted in assays of the genes.
The custom assays were designed using TYPEPLEX® chemistry with single-base extension which determines the expected mass weight of the extend products to ensure separation between all potential peaks found within a multiplexed reaction. 15 nl of amplified and extended product is spotted on a 384 SpectroCHIP II using a Nanodispenser. A 3-point calibrant is added to every chip to ensure proper performance of the Sequenom Maldi-tof compact mass spectrometer. The SpectroCHIP II is placed in the Sequenom MALDI-TOF compact mass spectrometer. The mass spectrometer is set to fire a maximum of 9 acquisitions for each spot on the 384 well SpectroCHIP. TypePLEX Gold kit SpectroCHIP II is used following manufacturers recommended protocols.
Analysis is performed using Sequenom analysis software, MassARRAY® Typer Analyzer v4 with a mutation call filter of ≧8%, Signal:Noise>5 (background), followed by a manual inspections for false positives due to Impurities (ie Salts). Default threshold for positive mutant call is a minimal 10% mutant allele frequency, though signal as low as 3% may be detected. […]

[3] = tested on: hematological and solid tumor xenograft models; conditions: range of hematological and solid tumor xenograft models; cited from earlier work
[4] = tested on: t(4;14) translocation in MM; conditions: bortezomib alone or in combination; cited from earlier work
[5] = tested on: relapsed and refractory myeloma; conditions: cited from earlier work
[6] = tested on: multiple myeloma patients (t(4;14) / NRAS status of tumor); assay: t(4;14) and NRAS status versus response in patients with tumor subtype data; assay type: in vivo, human
From the text: Table 12 details the t(4;14) and NRAS status of the current dataset for patients both with tumor subtype data (Mulligan et al. (2007) Blood 109:3177-3188) and who were response-evaluable (n=40).

[7] = tested on: relapsed multiple myeloma; conditions: cited from earlier work
[8] = bortezomib n = 315, dexamethasone n = 312
[9] = totals (all samples of the 2-by-2 table)
[10] = bortezomib versus dexamethasone
[11] = NRAS mutant and not t(4; 14), N=32
[12] = NRAS wild type and not t(4; 14), N=32
[13] = in this set of patients (pharmacogenomic set)

C[C@@H]1C[C@H]2[C@@H]3CCC4=CC(=O)C=C[C@]4(C)[C@@]3(F)[C@@H](O)C[C@]2(C)[C@@]1(O)C(=O)CO [dexamethasone]
Complete response [1]: < 1%
Complete response achieved, number of patients [1]: 2 patients
Median duration of response [1]: 5.6 months
One-year survival [1]: 66%
complete response plus near-complete response [1]: 2%
response rate (complete plus partial response (CR+PR)) [1]: 18%
Median time to response [1]: 43 days
Best Confirmed Response: CR + PR + MR [1, 8]: 108 (35) n (%)
Best Confirmed Response: Complete Response [1, 8]: 2 (<1) n (%)
Best Confirmed Response: Minor Response [1, 8]: 52 (17) n (%)
Best Confirmed Response: Near CR: IF+ [1, 8]: 3 (<1) n (%)
Best Confirmed Response: No Change [1, 8]: 149 (48) n (%)
Best Confirmed Response: Not Evaluable [1, 8]: 14 (4) n (%)
Best Confirmed Response: Overall Response Rate (CR + PR) [1, 8]: 56 (18) n (%)
Best Confirmed Response: Partial Response [1, 8]: 54 (17) n (%)
Best Confirmed Response: Progressive Disease [1, 8]: 41 (13) n (%)
Best Confirmed Response: SWOG Remission [1, 8]: 17 (5) n (%)
Non-response, number of patient samples ([2]; KRAS mutant): 6
Response, number of patient samples ([2]; KRAS mutant): 3
Non-response, number of patient samples ([2]; KRAS wild type): 14
Response, number of patient samples ([2]; KRAS wild type): 8
Non-response, number of patient samples ([2]; NRAS mutant): 3
Response, number of patient samples ([2]; NRAS mutant): 3
Non-response, number of patient samples ([2]; NRAS wild type): 17
Response, number of patient samples ([2]; NRAS wild type): 8
Non-response, number of patient samples [2, 9]: 20
Response, number of patient samples [2, 9]: 11

CC(C)C[C@H](NC(=O)CNC(=O)c1cc(Cl)ccc1Cl)B1OC(=O)C(CC(=O)O)(CC(=O)O)O1 [Ixazomib citrate, 2,2′-{2-[(1R)-1-({[(2,5dichlorobenzoyl)amino]acetyl}amino)-3-methylbutyl]-5-oxo-1,3,2-dioxaborolane-4,4-diyl}diacetic acid]
anti-tumor activity [3]: has anti-tumor activity

CC(C)C[C@H](NC(=O)[C@H](Cc1ccccc1)NC(=O)c1cnccn1)B(O)O [bortezomib, N(pyrazine)carbonyl-L-phenylalanine-L-leucine boronic acid]
effect on poor prognosis associated with the t(4;14) translocation [4]: at least partially overcomes the poor prognosis
Complete response [1]: 6%
Complete response achieved, number of patients [1]: 20 patients
Median duration of response [1]: 8 months
One-year survival [1]: 80%
complete response plus near-complete response [1]: 13%
response rate (complete plus partial response (CR+PR)) [1]: 38%
Median time to response [1]: 43 days
decrease in risk of death ([1]; bortezomib group versus dexamethasone, first year after enrollment): 41%
Best Confirmed Response: CR + PR + MR [1, 8]: 146 (46) n (%)
Best Confirmed Response: Complete Response [1, 8]: 20 (6) n (%)
Best Confirmed Response: Minor Response [1, 8]: 25 (8) n (%)
Best Confirmed Response: Near CR: IF+ [1, 8]: 21 (7) n (%)
Best Confirmed Response: No Change [1, 8]: 137 (43) n (%)
Best Confirmed Response: Not Evaluable [1, 8]: 10 (3) n (%)
Best Confirmed Response: Overall Response Rate (CR + PR) [1, 8]: 121 (38) n (%)
Best Confirmed Response: Progressive Disease [1, 8]: 22 (7) n (%)
Best Confirmed Response: SWOG Remission [1, 8]: 46 (15) n (%)
Difference (95% CI) in CR + PR + MR [1, 10]: 0.12 (0.04, 0.19)
Difference (95% CI) in Complete Response [1, 10]: 0.06 (0.03, 0.09)
Difference (95% CI) in Minor Response [1, 10]: −0.09 (−0.14, −0.04)
Difference (95% CI) in Near CR: IF+ [1, 10]: 0.06 (0.03, 0.09)
Difference (95% CI) in No Change [1, 10]: −0.04 (−0.12, 0.04)
Difference (95% CI) in Not Evaluable [1, 10]: −0.01 (−0.04, 0.02)
Difference (95% CI) in Overall Response Rate (CR + PR) [1, 10]: 0.20 (0.14, 0.27)
Difference (95% CI) in Partial Response [1, 10]: 0.15 (0.08, 0.21)
Difference (95% CI) in Progressive Disease [1, 10]: −0.06 (−0.11, −0.01)
Difference (95% CI) in SWOG Remission [1, 10]: 0.09 (0.05, 0.14)
CR+PR+MR, number of patients ([5]; Study -025, of 193 patients): 67 patients
CR+PR, number of patients ([5]; Study -025, of 193 patients): 53 patients
CR+PR rate to bortezomib alone ([5]; Study -025): 27%
overall response rate (CR+PR+minimal response (MR)) to bortezomib alone ([5]; Study -025): 35%
Non-response, number of patients [6, 11]: 10
Response, number of patients [6, 11]: 0
Non-response, number of patients ([6]; NRAS mutant, n = 40 cohort): 10
Response, number of patients ([6]; NRAS mutant, n = 40 cohort): 1
Non-response, number of patients [6, 12]: 11
Response, number of patients [6, 12]: 11
Non-response, number of patients ([6]; NRAS wild type, n = 40 cohort): 13
Response, number of patients ([6]; NRAS wild type, n = 40 cohort): 16
Non-response, number of patients ([6]; Other subtypes, n = 40 cohort): 21
Response, number of patients ([6]; Other subtypes, n = 40 cohort): 11
Non-response, number of patients ([6]; t(4; 14), n = 40 cohort): 2
Response, number of patients ([6]; t(4; 14), n = 40 cohort): 6
Non-response, number of patient samples ([2]; KRAS mutant): 8
Response, number of patient samples ([2]; KRAS mutant): 9
Non-response, number of patient samples ([2]; KRAS wild type): 34
Response, number of patient samples ([2]; KRAS wild type): 23
Non-response, number of patient samples ([2]; NRAS mutant): 14
Response, number of patient samples ([2]; NRAS mutant): 1
Non-response, number of patient samples ([2]; NRAS wild type): 28
Response, number of patient samples ([2]; NRAS wild type): 31
CR+PR rate [2, 13]: 32%
overall response rate [2, 13]: 42.3%
time-to-progression after bortezomib treatment ([2]; patients whose pre-treatment bone marrow tumor samples had NRAS mutations): significantly lower
Non-response, number of patient samples [2, 9]: 42
Response, number of patient samples [2, 9]: 32
complete response (CR)+partial response (PR) rate ([7]; bortezomib 1.0 mg/m^2, Study -024): 30%
complete response (CR)+partial response (PR) rate ([7]; bortezomib 1.3 mg/m^2, Study -024): 38%
